{"source": "paper PMC6254361", "about": "“The properties of Msh2–Msh6 ATP binding mutants suggest a signal amplification mechanism in DNA mismatch repair” (The Journal of Biological Chemistry, 2018)", "target": "T1, Msh2–Msh6 (Saccharomyces cerevisiae, UniProt P25847+Q03834, P25847:K694M)", "T1 sequence (P25847 1-964 K694M)": "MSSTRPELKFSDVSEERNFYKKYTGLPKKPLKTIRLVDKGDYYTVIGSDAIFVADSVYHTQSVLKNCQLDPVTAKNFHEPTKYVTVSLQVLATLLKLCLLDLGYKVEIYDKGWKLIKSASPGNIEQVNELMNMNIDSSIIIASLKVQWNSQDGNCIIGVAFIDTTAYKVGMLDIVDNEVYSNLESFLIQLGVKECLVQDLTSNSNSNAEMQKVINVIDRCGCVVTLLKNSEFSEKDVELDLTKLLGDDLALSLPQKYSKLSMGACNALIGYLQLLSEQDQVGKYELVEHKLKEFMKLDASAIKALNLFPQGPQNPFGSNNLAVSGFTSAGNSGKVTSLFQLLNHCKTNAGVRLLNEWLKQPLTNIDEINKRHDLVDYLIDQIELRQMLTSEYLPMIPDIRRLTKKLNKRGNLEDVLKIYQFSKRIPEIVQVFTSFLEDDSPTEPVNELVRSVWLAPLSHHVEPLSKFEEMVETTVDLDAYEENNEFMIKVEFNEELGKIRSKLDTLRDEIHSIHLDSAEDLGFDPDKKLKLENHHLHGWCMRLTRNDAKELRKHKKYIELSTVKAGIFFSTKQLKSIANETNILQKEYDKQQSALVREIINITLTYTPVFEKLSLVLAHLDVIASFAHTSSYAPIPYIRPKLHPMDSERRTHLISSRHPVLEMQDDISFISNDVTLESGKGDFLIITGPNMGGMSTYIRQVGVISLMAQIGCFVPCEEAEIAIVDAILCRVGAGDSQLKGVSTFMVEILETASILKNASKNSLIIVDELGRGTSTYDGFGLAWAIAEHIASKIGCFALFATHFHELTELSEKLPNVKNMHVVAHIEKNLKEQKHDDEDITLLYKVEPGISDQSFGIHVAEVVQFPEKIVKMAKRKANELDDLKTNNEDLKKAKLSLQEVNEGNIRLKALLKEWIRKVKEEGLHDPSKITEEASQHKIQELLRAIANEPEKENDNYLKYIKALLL", "T1 sequence (Q03834 1-1242)": "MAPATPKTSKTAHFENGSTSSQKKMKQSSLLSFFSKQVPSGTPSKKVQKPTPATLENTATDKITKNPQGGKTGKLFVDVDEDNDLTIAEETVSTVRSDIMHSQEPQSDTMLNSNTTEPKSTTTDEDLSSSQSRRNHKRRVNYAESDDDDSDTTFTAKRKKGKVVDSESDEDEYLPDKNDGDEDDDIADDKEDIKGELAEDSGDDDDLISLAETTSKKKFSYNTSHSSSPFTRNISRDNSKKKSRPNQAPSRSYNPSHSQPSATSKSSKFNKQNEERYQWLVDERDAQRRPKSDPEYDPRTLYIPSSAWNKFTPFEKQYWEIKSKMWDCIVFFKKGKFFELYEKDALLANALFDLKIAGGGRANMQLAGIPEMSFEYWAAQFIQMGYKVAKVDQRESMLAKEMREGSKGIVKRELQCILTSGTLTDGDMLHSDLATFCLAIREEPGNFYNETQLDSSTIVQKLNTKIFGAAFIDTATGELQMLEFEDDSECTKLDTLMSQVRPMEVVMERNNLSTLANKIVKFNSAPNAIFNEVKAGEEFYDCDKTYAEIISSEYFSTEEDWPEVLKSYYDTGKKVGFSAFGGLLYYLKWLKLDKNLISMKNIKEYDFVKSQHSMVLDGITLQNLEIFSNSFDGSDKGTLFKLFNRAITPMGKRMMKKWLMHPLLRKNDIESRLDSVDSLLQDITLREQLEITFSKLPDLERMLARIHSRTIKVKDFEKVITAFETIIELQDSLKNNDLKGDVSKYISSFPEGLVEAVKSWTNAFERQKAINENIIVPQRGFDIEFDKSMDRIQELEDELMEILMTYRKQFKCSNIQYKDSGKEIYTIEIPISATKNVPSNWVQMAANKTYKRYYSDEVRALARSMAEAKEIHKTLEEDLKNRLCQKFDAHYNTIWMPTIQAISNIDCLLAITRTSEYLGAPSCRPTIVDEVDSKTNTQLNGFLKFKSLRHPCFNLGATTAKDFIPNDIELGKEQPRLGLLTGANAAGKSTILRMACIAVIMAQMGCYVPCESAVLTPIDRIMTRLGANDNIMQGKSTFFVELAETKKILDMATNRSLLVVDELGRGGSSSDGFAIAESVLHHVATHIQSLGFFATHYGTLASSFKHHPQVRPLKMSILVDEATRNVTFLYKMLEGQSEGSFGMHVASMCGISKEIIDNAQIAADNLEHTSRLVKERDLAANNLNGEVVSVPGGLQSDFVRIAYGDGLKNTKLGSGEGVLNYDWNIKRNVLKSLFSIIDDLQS", "experiment": "UV cross-linking of [γ-32P]ATP, SDS-PAGE, phosphorimaging", "type": "binding", "conditions": "labelled compound; no Mg2+, EDTA, pH 8, on ice; Msh2 site at 60 μM ATP, Msh6 site at 1 μM ATP", "data": [{"compound": "Nc1ncnc2c1ncn2[C@@H]1O[C@H](COP(=O)(O)OP(=O)(O)OP(=O)(O)O)[C@@H](O)[C@H]1O", "note": "[ATP]", "values": [{"measurement": "relative ATP binding", "result": "Msh2(K694M)–Msh6 mutant complex was only defective for binding ATP to the Msh2 subunit"}]}]}
